Where “and” joins values, the source holds several entries; their conditions need not be identical. Identical values can stand only once.
Legend:
[1] = Safety and tolerability, food and coating study (Example 3); format: in vivo, human
Description: Safety and tolerability of VB-201 was judged by evaluating the incidence of abnormal findings in the following measurements: vital signs: systolic and diastolic blood pressure, heart rate, respiratory rate, body temperature; physical examination; 12-lead electrocardiogram; laboratory tests of blood samples for: complete blood count, prothrombin time/partial thromboplastin time, LDL- and HDL-cholesterol, total cholesterol, triglycerides, glucose, blood urea nitrogen, sodium, potassium, creatinine, calcium, phosphorus, creatinine phosphokinase, lactate dehydrogenase, aspartate transaminase, alanine transaminase, γ-glutamyl transferase, alkaline phosphatase, protein, albumin, total bilirubin, total IgM and IgG antibodies, interleukin-12/23 p40, tumor necrosis factor-α, and interleukin-6, as well as routine urinalysis; and all adverse events, whether or not considered serious, and whether or not considered related to the investigational agent, according to the criteria for Good Clinical Practice. Treatment-emergent adverse events were defined as any adverse event that started on or after administration of the first dose of VB-201, and no more than 30 days after administration of the last dose, or are ongoing at the time of the first dose and worsened in severity or frequency during treatment. […]

[2] = Single-dose pharmacokinetics of VB-201 in plasma (Example 1); format: in vivo, human; settings: for AUC(0-infinity): in ng·h/mL
Method: Determination of VB-201 concentrations in plasma was performed using an HPLC-MS/MS (high performance liquid chromatography with tandem mass spectrometric detection) assay. Calibration was for a range of from 5 to 500 ng/ml for low doses and from 50 to 5000 ng/ml for high doses. Pharmacokinetic parameters were estimated by using a non-compartmental method, except for the AUC (area under curve), which was determined using a (log-) trapezoidal rule as the area above the previous trough level. […] All subjects were healthy male volunteers. Five cohorts of six subjects each received a single dose of 1, 3, 10, 30 or 50 mg VB-201. 10 subjects received a placebo. The VB-201 was formulated in gelatin capsules enterocoated with Eudragit®. […] Evaluation of relative bioavailability was performed for the primary target parameters AUC (area under the concentration-time curve) and Cmax-(maximum plasma concentration).

[3] = system: Human monocytes (CD14+ cells)
Method: Human monocytes (CD14^+ cells) were isolated from whole blood of healthy donors. Following PBMC (peripheral blood mononuclear cell) separation from whole blood using Ficoll-Paque and leucosep tubes, CD14^+ cells were separated using specific CD14 micro beads (Miltenyi Biotech). Purity of the CD14^+ population was validated using specific monoclonal CD14 antibody by FACS analysis. For chemoattractant, RANTES (100 ng/ml), MIP-1α (macrophage inflammatory protein-1a; 50 ng/ml), MCP-1 (monocyte chemotactic protein-1; 50 ng/ml) or MCP-3 (50 ng/ml) were dissolved in 2% fetal bovine serum/RPMI-1640 and placed at the lower chamber of QCM™ 24-well migration assay plate (Corning-Costar). CD14+ cells were pre-incubated for 30 minutes with solvent (1% ethanol/PBS) or VB-201 at 8 μM (or different concentrations ranging between 1.7-17 μM, not shown). Migration assay was conducted by seeding 300,000 treated cells in the upper chamber, followed by incubated for 3-4 hours, after which the number of migrated cells was determined by FACS (fluorescence activated cell sorting).
VB-201 was tested in vitro as described hereinabove for possible effects on migration of human primary monocytes towards inflammatory chemokines using a trans-well assay. For a broad analysis, several chemoattractants which serve as ligands for different chemokine receptors were used. Two assays were performed in triplicates for each chemoattractant.

## CCCCCCCCCCCCCCCCOCC(COP(=O)([O-])OCC[N+](C)(C)C)OCCCCC(=O)O (centres unmarked) [VB-201, 1-hexadecyl-2-(4′-carboxybutyl)-glycerol-3-phosphocholine]
[1]; enteric coated and non-coated capsules, 10 to 20 mg, fasting or fed
  safety and tolerability: as safe and tolerable as placebo
[1]; single dose 10-20 mg, coated and non-coated, fed and fasting
  serious or treatment-emergent adverse events: No serious or treatment-emergent adverse events occurred
[2]; single oral dose 1 mg
  AUC(0-168): 501 ± 241 ng·h/mL
  AUC(0-last non-BLQ): 388 ± 168 ng·h/mL
  AUMC: 70178 ± 38633 hours^2*ng/ml
  Cavg (0-168): 2.98 ± 1.43 ng/mL
  Cl/F: 1.44 ± 0.087 L/h
  Cmax: 12.52 ± 2.42 ng/mL
  Estimated amount circulating: 0.26 ± 0.05 mg
  Estimated minimum bioavailability: 26 ± 5%
  Ke: 0.0165 ± 0.0099 h⁻¹
  MTT: 76 ± 27 h
  T1/2: 51 ± 19 h
  Tmax: 8.0 ± 2.1 h
  AUC(0-infinity): 840 ± 309
[2]; single oral dose 3 mg
  AUC(0-168): 2575 ± 1027 ng·h/mL
  AUC(0-last non-BLQ): 2234 ± 1259 ng·h/mL
  AUMC: 214719 ± 133999 hours^2*ng/ml
  Cavg (0-168): 15.33 ± 6.11 ng/mL
  Cl/F: 1.21 ± 0.49 L/h
  Cmax: 53.21 ± 19.43 ng/mL
  Estimated amount circulating: 1.12 ± 0.41 mg
  Estimated minimum bioavailability: 37 ± 14%
  Ke: 0.015 ± 0.0027 h⁻¹
  MTT: 70 ± 16 h
  T1/2: 48 ± 10 h
  Tmax: 8.2 ± 3.9 h
  AUC(0-infinity): 2886 ± 1262
[2]; single oral dose 10 mg
  AUC(0-168): 6138 ± 2259 ng·h/mL
  AUC(0-last non-BLQ): 5634 ± 2705 ng·h/mL
  AUMC: 333614 ± 227308 hours^2*ng/ml
  Cavg (0-168): 36.53 ± 13.44 ng/mL
  Cl/F: 1.83 ± 0.84 L/h
  Cmax: 131.7 ± 20.47 ng/mL
  Estimated amount circulating: 2.77 ± 0.62 mg
  Estimated minimum bioavailability: 28 ± 6%
  Ke: 0.0191 ± 0.0026 h⁻¹
  MTT: 46 ± 20 h
  T1/2: 37 ± 5 h
  Tmax: 7.1 ± 1.9 h
  AUC(0-infinity): 6395 ± 2551
[2]; single oral dose 30 mg
  AUC(0-168): 23243 ± 7277 ng·h/mL
  AUC(0-last non-BLQ): 23243 ± 7277 ng·h/mL
  AUMC: 1463889 ± 520387 hours^2*ng/ml
  Cavg (0-168): 138.4 ± 43.32 ng/mL
  Cl/F: 1.37 ± 0.58 L/h
  Cmax: 495.0 ± 154.2 ng/mL
  Estimated amount circulating: 10.40 ± 3.24 mg
  Estimated minimum bioavailability: 35 ± 11%
  Ke: 0.018 ± 0.0021 h⁻¹
  MTT: 59 ± 4 h
  T1/2: 39 ± 4 h
  Tmax: 6.0 ± 0.9 h
  AUC(0-infinity): 24668 ± 7941
[2]; single oral dose 50 mg
  AUC(0-168): 58816 ± 31297 ng·h/mL
  AUC(0-last non-BLQ): 58816 ± 31297 ng·h/mL
  AUMC: 4719948 ± 3532459 hours^2*ng/ml
  Cavg (0-168): 350.1 ± 186.3 ng/mL
  Cl/F: 0.97 ± 0.46 L/h
  Cmax: 1172 ± 459.4 ng/mL
  Estimated amount circulating: 24.61 ± 9.65 mg
  Estimated minimum bioavailability: 49%
  Ke: 0.015 ± 0.0027 h⁻¹
  MTT: 67 ± 14 h
  T1/2: 47 ± 9 h
  Tmax: 6.5 ± 0.8 h
  estimated bioavailability, average of the other 4 subjects: 38%
  AUC(0-infinity): 65628 ± 37141
[2]; single oral dose 50 mg, individual subjects
  estimated bioavailability, 2 subjects with particularly high values: 75% and 71%
[2]; single oral doses 1-50 mg
  dose linearity of AUC and Cmax: dose-linear and nearly dose-proportional
  highest estimated bioavailability observed in individuals: 75%
  lowest estimated bioavailability observed in individuals: 18%
[3]; 8 μM VB-201, 30 min pre-treatment, MCP-1 50 ng/ml
  migration of human primary monocytes towards MCP-1: significantly (P<0.05) reduced
[3]; 8 μM VB-201, 30 min pre-treatment, MCP-3 50 ng/ml
  migration of human primary monocytes towards MCP-3: significantly (P<0.05) reduced
[3]; 8 μM VB-201, 30 min pre-treatment, MIP-1α 50 ng/ml
  migration of human primary monocytes towards MIP-1α: significantly (P<0.05) reduced
[3]; 8 μM VB-201, 30 min pre-treatment, RANTES 100 ng/ml
  migration of human primary monocytes towards RANTES: significantly (P<0.05) reduced
[3]; in vitro, 1.7-17 μM
  dose dependence of inhibition of monocyte migration: dose-dependent
